System: M. abscessus Bamboo
Type: cell-based
Details: M. abscessus versus M. tuberculosis

CC(C)(O)COc1ccc(Br)c2c1B(O)O[C@@H]2CN [EC/11770]
frequency of resistance lower than for other benzoxaboroles in M. tuberculosis: 100 fold

Source: paper PMC8092876, “A Leucyl-tRNA Synthetase Inhibitor with Broad-Spectrum Antimycobacterial Activity” (Antimicrobial Agents and Chemotherapy, 2021)
